Values of other authors in patent US7491730B2, “Compositions useful as inhibitors of GSK-3” (Vertex Pharmaceuticals Incorporated, priority 2002, dated 2009).

Molecular target: gamma secretase
Settings: vendor value, Calbiochem catalog #565771; read-out: reported IC50

SMILES: CC(C)C[C@H](NC(=O)[C@H](Cc1ccccc1)C[C@@H](O)[C@H](Cc1ccccc1)NC(=O)OC(C)(C)C)C(=O)N[C@@H](Cc1ccccc1)C(N)=O [Inhibitor X]
- IC50: 50 nM
